Reference: patent publication EP4781993A1, “ANTIBACTERIAL COMPOSITION AND ANTIBACTERIAL DRUG” (Shenzhen China Resources Gosun Pharmaceuticals Co., Ltd., priority 2023, dated 2025)

Key:
[1] = system: OXA-232 producing Klebsiella pneumoniae; experiment: Broth-microdilution MIC (CLSI M07-A11) against clinical isolates; type: cell-based; conditions: for MIC range / MIC50 / MIC90 / Mode: 12 strains; for MIC range / MIC50 / MIC90: MIC = ceftobiprole concentration (groups A2, B2, C2, D2, E2: inhibitor alone); for MIC50 / MIC90: Klebsiella pneumoniae; for Cumulative inhibition rate (%) / Cumulative number of strains / Number of strains: MIC >128 mg/L; for Mode: mode of MIC; for antibacterial activity: verdict in words
Description: (§1) As recommended by CLSI (Clinical and Laboratory Standards Institute) M07-A11 (2018 edition), the Broth-microdilution method is adopted to determine the minimum inhibitory concentration (MIC) of ceftobiprole and zidebactam against clinical isolates. It should be noted that, in the present disclosure, MIC50 refers to the minimum drug concentration that inhibits the growth of 50% of the tested bacteria, and MIC90 refers to the minimum drug concentration that inhibits the growth of 90% of the tested bacteria.
(§2) Antibacterial drug: ceftobiprole, manufacturer: Shenyang Sanjiu Pharmaceutical, content: 92.1%, batch number: YF/BALP141/000. Zidebactam, manufacturer: Target M01 company, batch number: 149661. Zidebactam, as described above, the English name is Zidebactam, and the chemical name is: (2S,5R)-7-oxo-2-(2-((R)-piperidine-3-carbonyl)hydrazine-1-carbonyl)-1,6-diazabicyclo[3.2.1]octan-6-yl hydrogen sulfate.
(§3) Tested strains: a total of 24 genotypic strains producing KPC or OXA β-lactamase. Specifically, the tested strains include 24 strains of Klebsiella pneumoniae, including 12 KPC-2 producing strains and 12 OXA-232 producing strains.
(§4) Quality control strains: Escherichia coli ATCC 25922, (KPC-2 producing) Klebsiella pneumoniae ATCC BAA-1705, and (NDM-1 producing) Klebsiella pneumoniae ATCC BAA-2146.
(§5) Medium: cation-adjusted Mueller-Hinton broth (CAMHB), a product of BBL Company, USA.
(§6) Inoculum size: Pure isolated colonies were adjusted with normal saline to 0.5 McFarland turbidity. After appropriate dilution, the suspension was added to the wells of a 96-well U-bottom microplate (containing 50 µL antibacterial drug solution). The inoculum size was 5 × 10^5 CFU/mL.
(§7) Culture conditions: air environment, 35°C ± 2°C, 16 to 20 hours.
(§8) Preparation of Antibacterial Drug Solution : Ceftobiprole and zidebactam were taken separately, dissolution and dilution were performed according to the antibacterial drug reference to the CLSI standards and the drug package insert, A1 to A6, a total of 6 groups of antibacterial drug solutions, were prepared, among which, group A1 was the control group containing solely the single agent ceftobiprole, and group A2 was the control group containing solely the single agent zidebactam. Different antibacterial drug solutions with ceftobiprole concentrations ranging from 128 mg/L to 0.06 mg/L were respectively included in groups A1 and A3 to A6, and different antibacterial drug solutions with zidebactam concentrations ranging from 128 mg/L to 0.06 mg/L were included in group A2. The specific concentrations within the range of 128 mg/L to 0.06 mg/L in groups A1 to A6 were respectively 128 mg/L, 64 mg/L, 32 mg/L, 16 mg/L, 8 mg/L, 4 mg/L, 2 mg/L, 1 mg/L, 0.5 mg/L, 0.25 mg/L, 0.125 mg/L, or 0.06 mg/L, respectively. Table 1. Concentrations of ceftobiprole/zidebactam contained in the antibacterial drug solutions of groups A1 to A6
(§9) Experimental results: Currently, there are no established CLSI or EUCAST breakpoints for ceftobiprole/β-lactamase inhibitor. Therefore, the antibacterial activity of ceftobiprole/β-lactamase inhibitor is evaluated in accordance with the standards for ceftobiprole. WHONET 5.6 software is used to perform statistical analysis on the results of antibacterial susceptibility test. The fractional inhibitory concentration index (FIC) for the combination of ceftobiprole and zidebactam is calculated according to Equation (1). FIC index = (MIC of drug A in combination)/(MIC of drug A alone) + (MIC of drug B in combination)/(MIC of drug B alone) [formula]
(§10) In Equation (1), drug A is ceftobiprole, and drug B is zidebactam. […] Table 2. In vitro antibacterial activity of ceftobiprole/zidebactam against the tested bacteria in Example 1 […]

[2] = system: KPC-2 producing Klebsiella pneumoniae; experiment: as above; type: cell-based; conditions: for MIC range / MIC50 / MIC90 / Mode: 12 strains; for MIC range / MIC50 / MIC90: MIC = ceftobiprole concentration (groups A2, B2, C2, D2, E2: inhibitor alone); for MIC50 / MIC90: Klebsiella pneumoniae; for MIC50: read-out: MIC50; for MIC90: read-out: MIC90; for Cumulative inhibition rate (%) / Cumulative number of strains / Number of strains: MIC >128 mg/L; for Mode: mode of MIC; for antibacterial activity: verdict in words
Description: as §1, §2, §3, §4, §5, §6, §7, §8, §9, §10

| MIC range [1] | MIC50 [1] | MIC90 [1] | MIC range [2] | MIC50 [2] | MIC90 [2] | Molecule | Cumulative inhibition rate (%) [1] | Cumulative number of strains [1] | Number of strains [1] | Mode [1] | antibacterial activity [1] | Cumulative inhibition rate (%) [2] | Cumulative number of strains [2] | Number of strains [2] | Mode [2] | antibacterial activity [2] |
| --- | --- | --- | --- | --- | --- | --- | --- | --- | --- | --- | --- | --- | --- | --- | --- | --- |
| >128 mg/L | > 128 µg/mL | > 128 µg/mL | >128 mg/L | > 128 µg/mL | > 128 µg/mL | NCCN[C@H]1CC[C@H](CC(=O)N[C@H]2Cc3cccc(C(=O)O)c3OB2O)CC1 [Group D2, (R)-3-(2-((1r,4R)-4-((2-aminoethyl)amino)cyclohexyl)acetamido)-2-hydroxy-3,4-dihydro-2H-benzo[e][1,2]oxaborinine-8-carboxylic acid] | 100% | 12 | 12 | >128 mg/L | no antibacterial activity | 100% | 12 | 12 | >128 mg/L | no antibacterial activity |
| >128 mg/L | ≥ 128 µg/mL | ≥ 128 µg/mL | >128 mg/L | ≥ 128 µg/mL | ≥ 128 µg/mL | C[n+]1ccn(C[C@@]2(C)[C@H](C(=O)[O-])N3C(=O)C[C@H]3S2(=O)=O)n1 [Group E2, (2S,3S,5R)-3-methyl-3-[(3-methyltriazol-3-ium-1-yl)methyl]-4,4,7-trioxo-4-amino-6-thia-1-azabicyclo[3.2.0]heptane-2-carboxylate] | 100% | 12 | 12 | >128 mg/L | no antibacterial activity | 100% | 12 | 12 | >128 mg/L | no antibacterial activity |
| >128 mg/L |  |  | >128 mg/L |  |  | (3R,6S)-2-hydroxy-3-[[2-(2-thienyl)acetyl]amino]-1,2-oxaborinane-6-acetic acid [Group B2] | 100% | 12 | 12 | >128 mg/L | no antibacterial activity | 100% | 12 | 12 | >128 mg/L | no antibacterial activity |
